Here are results for 32 compounds from patent publication US20240383882A1 (Ecstasy LLC, priority 2020, published 2024).

Structures can show the parent of a compound that is named as a salt.

The first test has as its system male C57BL/6 mice. The test can be described thus: 55° C. warm-water tail-flick test (antinociception). The class given is in vivo. Particulars: Mus musculus, sc, 0.5 h, compounds of Table I; s.c.; 30 min; 55° C. water; configuration tested as in Table II; read-out: ED50 (mg/kg) at 30 min on C57BL/6 mice in Warm-water Tail-flick Test. The essentials: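 Subcutaneous dosing, then tail immersion in 55° C water at 30–120 min; latency normalized as 100×(test−control)/(20−control), using a 20 s cutoff, after excluding mice not responding within 2 s at baseline. Values expressed as ED50 (mg/kg).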
Background: Hot-plate and tail-flick tests time the reaction to a heat stimulus.
For `CCOCC1(CCn2c(=O)[nH]c3cnccc32)CCN(C(C)(C)c2ccc(C)nc2)C1` (stereo not shown) [Compound 92, 1-(2-(3-(ethoxymethyl)-1-(2-(6-methylpyridin-3-yl)propan-2-yl)pyrrolidin-3-yl)ethyl)-1,3-dihydro-2H-imidazo[4,5-c]pyridin-2-one citrate], the ED50 was no more than 30 mg/kg. Regarding `CCOC(C(F)(F)F)(C(F)(F)F)[C@]1(CCc2ccc(F)cc2)CCN(Cc2ccc(C)nc2)C1` [Compound 13, (R)-5-((3-(2-ethoxy-1,1,1,3,3,3-hexafluoropropan-2-yl)-3-(4-fluorophenethyl)pyrrolidin-1-yl)methyl)-2-methylpyridine], the ED50 is no more than 30 mg/kg. For the compound `Cc1ccc(C(C)(C)N2CCC(CCc3ccc(F)s3)(CNC(=O)NC(C)C)C2)cn1` (single isomer, unassigned) [Compound 42], the ED50 is no more than 30 mg/kg. Same read-out and setting: in the case of `Cc1ccc(C(C)(C)N2CCC(CCc3ccc(F)s3)(CNS(C)(=O)=O)C2)cn1` (single isomer, unassigned) [Compound 313] it was no more than 30 mg/kg; in that of `CCOC(c1ccccn1)C1(CCc2cccs2)CCN(C(C)(C)c2ccc(C)nc2)C1` (single isomer, unassigned) [Compound 86, 5-(2-((S or R)-3-((R& S)-ethoxy(pyridin-2-yl)methyl)-3-(2-(thiophen-2-yl)ethyl)pyrrolidin-1-yl)propan-2-yl)-2-methylpyridine citrate], no more than 30 mg/kg.

For `Cc1ccc(C(C)(C)N2CCC(CCc3ccc(F)s3)(CNC(=O)Nc3ccccc3)C2)cn1` (single isomer, unassigned) [Compound 43], the ED50 was no more than 30 mg/kg.

Still in this test, the particulars now being: Mus musculus, sc, 0.5 h, compounds of Table III; s.c.; 30 min; 55° C. water; configuration tested as in Table IV; read-out: ED50 (mg/kg) at 30 min on C57BL/6 mice in Warm-water Tail-flick Test (same as Table II).
As to `CC(C)(c1ccsc1)N1CCC(CCc2cccs2)(C2CCCO2)C1` (single isomer, unassigned) [Compound 24], the ED50 is no more than 30 mg/kg.

Staying with this test, now noted: Mus musculus, sc, 0.5 h, compounds of Table V; s.c.; 30 min; 55° C. water; read-out: ED50 (mg/kg) at 30 min on C57BL/6 mice in Warm-water Tail-flick Test (same conditions as Table II).
As for `CCOC(C(F)(F)F)(C(F)(F)F)[C@]1(CCc2ccc(F)cc2)CCN(Cc2ccc(C)nc2)C1` [Compound 13, (R)-5-((3-(2-ethoxy-1,1,1,3,3,3-hexafluoropropan-2-yl)-3-(4-fluorophenethyl)pyrrolidin-1-yl)methyl)-2-methylpyridine], the ED50 is greater than 50 mg/kg.

The test is the same for the next values; noted with them: Mus musculus; half maximal effective dose in mice; using one of: warm water tail-flick test, spared nerve injury, chronic constriction injury, or Complete Freund's adjuvant induced inflammatory pain (not stated which per compound); read-out: Biological Activity (ED50).
For the compound `CC(C)(c1ccccn1)N1CC[C@](CO)(CCc2ccc(C#N)cc2F)C1` [Compound 111, (R)-3-fluoro-4-(2-(3-(hydroxymethyl)-1-(2-(pyridin-2-yl)propan-2-yl)pyrrolidin-3-yl)ethyl) benzonitrile], the ED50 is greater than 50 mg/kg.

On to `CC(C)(c1ccccn1)N1CC[C@@](CCc2ccc(C#N)cc2)(C(O)(C(F)(F)F)C(F)(F)F)C1` [Compound 119, (R)-4-(2-(3-(1,1,1,3,3,3-hexafluoro-2-hydroxypropan-2-yl)-1-(2-(pyridin-2-yl)propan-2-yl)pyrrolidin-3-yl)ethyl) benzonitrile], for which the ED50 was greater than 50 mg/kg. Consider `CC(C)(c1ccc(Cl)cc1)N1CC[C@@](CCc2ccc(S(C)(=O)=O)cc2)(C(O)C(F)(F)F)C1` (single isomer, unassigned) [Compound 222, (R or S)-1-((R)-1-(2-(4-chlorophenyl)propan-2-yl)-3-(4-(methylsulfonyl)phenethyl)pyrrolidin-3-yl)-2,2,2-trifluoroethan-1-ol], for which the ED50 was greater than 50 mg/kg. Consider `CC(C)(c1ccccn1)N1CC[C@](CN)(CCc2ccc(C#N)cc2)C1` [Compound 115, (S)-4-(2-(3-(aminomethyl)-1-(2-(pyridin-2-yl)propan-2-yl)pyrrolidin-3-yl)ethyl) benzonitrile], for which the ED50 was greater than 50 mg/kg. Turning to `CC(C)(c1ccccn1)N1CC[C@@](CCc2cccc(C#N)c2)([C@H](O)C(F)(F)F)C1` [Compound 133, 3-(2-((R)-1-(2-(pyridin-2-yl)propan-2-yl)-3-((S)-2,2,2-trifluoro-1-hydroxyethyl)pyrrolidin-3-yl)ethyl) benzonitrile], the ED50 is greater than 50 mg/kg. Turning to `COC[C@]1(CCc2ccc(C#N)cc2)CCN(C(C)(C)c2ccccn2)C1` [Compound 59], the ED50 was greater than 50 mg/kg. As to `CC(C)(c1ccccn1)N1CC[C@@](CCc2ccc(C#N)cc2)(C(=O)NC2(C(F)(F)F)COC2)C1` [Compound 206, (R)-3-(4-cyanophenethyl)-1-(2-(pyridin-2-yl)propan-2-yl)-N-(3-(trifluoromethyl)oxetan-3-yl)pyrrolidine-3-carboxamide], the ED50 is no more than 30 mg/kg. Turning to `CC(C)(c1ccccn1)N1CC[C@](CO)(CCc2ccc(S(C)(=O)=O)cc2)C1` [Compound 53], the ED50 was greater than 50 mg/kg. Take `CCOC(C(F)(F)F)(C(F)(F)F)[C@]1(CCc2ccc(F)cc2)CCN(Cc2ccc(C)nc2)C1` [Compound 13, (R)-5-((3-(2-ethoxy-1,1,1,3,3,3-hexafluoropropan-2-yl)-3-(4-fluorophenethyl)pyrrolidin-1-yl)methyl)-2-methylpyridine]: the ED50 is greater than 50 mg/kg. With `CC(C)(c1ccccn1)N1CC[C@](C#N)(CCc2ccc3nonc3c2)C1` [Compound 178, (R)-3-(2-(benzo[c][1,2,5]oxadiazol-5-yl)ethyl)-1-(2-(pyridin-2-yl)propan-2-yl)pyrrolidine-3-carbonitrile], the ED50 was greater than 50 mg/kg. For `CCOC[C@@]1(CCc2ccc(S(C)(=O)=O)cc2)CCN(C(C)(C)c2ccccc2)C1` [Compound 200, (S)-3-(ethoxymethyl)-3-(4-(methylsulfonyl)phenethyl)-1-(2-phenylpropan-2-yl)pyrrolidine], the ED50 was no more than 30 mg/kg.

Regarding `CC(O)[C@]1(CCc2ccc(S(C)(=O)=O)cc2)CCN(C(C)(C)c2ccc(Cl)cc2)C1` (single isomer, unassigned) [Compound 219, (R or S)-1-((R)-1-(2-(4-chlorophenyl)propan-2-yl)-3-(4-(methylsulfonyl)phenethyl)pyrrolidin-3-yl)ethan-1-ol], the ED50 was greater than 50 mg/kg. With `CC(C)(c1ccccn1)N1CC[C@@](CCc2ccc(C#N)cc2)(C(=O)NC2(C(F)(F)F)CC2)C1` [Compound 201, (R)-3-(4-cyanophenethyl)-1-(2-(pyridin-2-yl)propan-2-yl)-N-(1-(trifluoromethyl)cyclopropyl) pyrrolidine-3-carboxamide], the ED50 is no more than 30 mg/kg. On to `CC(O)[C@]1(CCc2ccc(F)cc2)CCN(C(C)(C)c2ccccn2)C1` (single isomer, unassigned) [Compound 216, (R or S)-1-((R)-3-(4-fluorophenethyl)-1-(2-(pyridin-2-yl)propan-2-yl)pyrrolidin-3-yl)ethan-1-ol], for which the ED50 is greater than 50 mg/kg. As to `COc1cccc(C(C)(C)N2CC[C@@](CCc3ccc(C#N)cc3)(C(=O)O)C2)n1` [Compound 158, (R)-3-(4-cyanophenethyl)-1-(2-(6-methoxypyridin-2-yl)propan-2-yl)pyrrolidine-3-carboxylic acid], the ED50 was greater than 50 mg/kg. In the case of `CC(C)(c1ccccn1)N1CC[C@@](/C=C/c2ccc(C#N)cc2)(c2nn[nH]n2)C1` [Compound 185, (S,E)-4-(2-(1-(2-(pyridin-2-yl)propan-2-yl)-3-(2H-tetrazol-5-yl)pyrrolidin-3-yl)vinyl) benzonitrile], the ED50 is greater than 50 mg/kg. On to `CC(C)(c1ccccc1)N1CC[C@](CCc2ccc(S(C)(=O)=O)cc2)(C(O)C(F)(F)F)C1` (single isomer, unassigned) [Compound 213, (R or S)-2,2,2-trifluoro-1-((S)-3-(4-(methylsulfonyl)phenethyl)-1-(2-phenylpropan-2-yl)pyrrolidin-3-yl)ethan-1-ol], for which the ED50 was no more than 30 mg/kg. As to `CC(C)(c1ccccn1)N1CC[C@@](CCc2ccc(C#N)cc2)(C(O)c2ccccc2)C1` (single isomer, unassigned) [Compound 57], the ED50 was no more than 30 mg/kg.

With `CC(C)(c1ccccn1)N1CC[C@@](CCc2ccc(C#N)cn2)(C(O)C(F)(F)F)C1` (single isomer, unassigned) [Compound 120, 6-(2-((R)-1-(2-(pyridin-2-yl)propan-2-yl)-3-((R or S)-2,2,2-trifluoro-1-hydroxyethyl)pyrrolidin-3-yl)ethyl) nicotinonitrile], the ED50 was greater than 50 mg/kg. The same measure, in the same setting: the result for `CC(C)(c1ccccn1)N1CC[C@@](CCc2ccccc2C#N)(C(O)C(F)(F)F)C1` (single isomer, unassigned) [Compound 135, 2-(2-((R)-1-(2-(pyridin-2-yl)propan-2-yl)-3-((R or S)-2,2,2-trifluoro-1-hydroxyethyl)pyrrolidin-3-yl)ethyl) benzonitrile] reads greater than 50 mg/kg; that for `CC(C)(c1ccccn1)N1CC[C@](CO)(CCc2cnc3ccccc3n2)C1` [Compound 184, (R)-(1-(2-(pyridin-2-yl)propan-2-yl)-3-(2-(quinoxalin-2-yl)ethyl)pyrrolidin-3-yl)methanol], greater than 50 mg/kg. In the case of `CC(C)(c1ccc(F)cn1)N1CC[C@](CCc2ccc(C#N)cc2)(C(O)C(F)(F)F)C1` (single isomer, unassigned) [Compound 229, 4-(2-((S)-1-(2-(5-fluoropyridin-2-yl)propan-2-yl)-3-((R or S)-2,2,2-trifluoro-1-hydroxyethyl)pyrrolidin-3-yl)ethyl) benzonitrile], the ED50 is greater than 50 mg/kg. Take `N#Cc1ccc(CC[C@]2(C3CCO3)CCN(Cc3cccnc3)C2)cc1` (single isomer, unassigned) [Compound 21, 4-(2-((S)-3-((R or S)-oxetan-2-yl)-1-(pyridin-3-ylmethyl)pyrrolidin-3-yl)ethyl) benzonitrile]: the ED50 is greater than 50 mg/kg. As to `CC(C)(c1ccccn1)N1CC[C@@](CCc2ccc(C#N)cc2)(CNC2(C#N)COC2)C1` [Compound 209, (S)-3-(((3-(4-cyanophenethyl)-1-(2-(pyridin-2-yl)propan-2-yl)pyrrolidin-3-yl)methyl)amino) oxetane-3-carbonitrile], the ED50 was greater than 50 mg/kg. In the case of `CC(C)(c1ccccn1)N1CC[C@@](CCc2ccc(C#N)cc2F)(C(O)C(F)(F)F)C1` (single isomer, unassigned) [Compound 116, 3-fluoro-4-(2-((R)-1-(2-(pyridin-2-yl)propan-2-yl)-3-((R or S)-2,2,2-trifluoro-1-hydroxyethyl)pyrrolidin-3-yl)ethyl) benzonitrile], the ED50 is greater than 50 mg/kg. The same measure, in the same setting: in the case of `CC(C)(c1ccccn1)N1CC[C@](CO)(CCc2ccc(F)cc2)C1` [Compound 215, (R)-(3-(4-fluorophenethyl)-1-(2-(pyridin-2-yl)propan-2-yl)pyrrolidin-3-yl)methanol] it was greater than 50 mg/kg.
